Measured values published in paper PMC5218480 (PLoS ONE, 2017).

System: MV-4-11 cells
Experiment: Gene expression microarray analysis (Affymetrix PrimeView) and GSEA
Format: cell-based, human
Design: RFU PODN (11730768_x_at) / Fold change /veh PODN (11730768_x_at) / RFU LINC00158 (11744669_a_at) / Fold change /veh LINC00158 (11744669_a_at) / RFU DUSP10 (11751237_a_at) / Fold change /veh DUSP10 (11751237_a_at) / RFU ID3 (11757404_x_at) / Fold change /veh ID3 (11757404_x_at) / RFU PLEKHG5 (11737974_s_at) / Fold change /veh PLEKHG5 (11737974_s_at) / RFU LRRC4B (11730491_at) / Fold change /veh LRRC4B (11730491_at) / RFU GIMAP4 (11747438_a_at) / Fold change /veh GIMAP4 (11747438_a_at) / RFU KRT8 (11758183_x_at) / Fold change /veh KRT8 (11758183_x_at) / RFU CNN1 (11734310_a_at) / Fold change /veh CNN1 (11734310_a_at) / RFU VPS37D (11726825_at) / Fold change /veh VPS37D (11726825_at) / RFU C10orf10 (11716522_x_at) / Fold change /veh C10orf10 (11716522_x_at) / RFU KIR2DL2 /// KIR2DL4 /// KIR2DL5A /// KIR2DL5B /// KIR2DS1 /// KIR2DS2 /// KIR2DS3 /// KIR2DS4 /// KIR3DL3 /// KIR3DL3 /// KIR3DS1 (11738374_at) / Fold change /veh KIR2DL2 /// KIR2DL4 /// KIR2DL5A /// KIR2DL5B /// KIR2DS1 /// KIR2DS2 /// KIR2DS3 /// KIR2DS4 /// KIR3DL3 /// KIR3DL3 /// KIR3DS1 (11738374_at) / RFU C1QL1 (11718748_at) / Fold change /veh C1QL1 (11718748_at) / RFU TMPRSS4 (11747572_a_at) / Fold change /veh TMPRSS4 (11747572_a_at) / RFU HAMP (11756126_x_at) / Fold change /veh HAMP (11756126_x_at) / RFU RNFT2 (11725882_a_at) / Fold change /veh RNFT2 (11725882_a_at) / RFU NR4A2 (11747474_a_at) / Fold change /veh NR4A2 (11747474_a_at) / RFU ABCC12 (11746883_a_at) / Fold change /veh ABCC12 (11746883_a_at) / RFU TMEM136 (11760407_x_at) / Fold change /veh TMEM136 (11760407_x_at) / RFU CLDN22 /// WWC2 (11732394_at) / Fold change /veh CLDN22 /// WWC2 (11732394_at) / RFU HLA-DPB1 (11760878_x_at) / Fold change /veh HLA-DPB1 (11760878_x_at) / RFU SPINT1 (11716480_a_at) / Fold change /veh SPINT1 (11716480_a_at) / RFU GAP43 (11754022_s_at) / Fold change /veh GAP43 (11754022_s_at) / RFU A4GNT (11735810_at) / Fold change /veh A4GNT (11735810_at) / RFU PRB3 (11715151_x_at) / Fold change /veh PRB3 (11715151_x_at) / RFU TUBB4B (11761932_at) / Fold change /veh TUBB4B (11761932_at) / RFU CAPN14 (11732068_a_at) / Fold change /veh CAPN14 (11732068_a_at) / RFU TMCC2 (11721928_a_at) / Fold change /veh TMCC2 (11721928_a_at) / RFU IRGQ (11745062_a_at) / Fold change /veh IRGQ (11745062_a_at) / RFU FAM174B (11720279_a_at) / Fold change /veh FAM174B (11720279_a_at) / RFU TMPRSS4 (11748680_a_at) / Fold change /veh TMPRSS4 (11748680_a_at) / RFU FAM212B (11763350_a_at) / Fold change /veh FAM212B (11763350_a_at) / RFU PLEKHG5 (11743358_a_at) / Fold change /veh PLEKHG5 (11743358_a_at) / RFU ZSCAN30 (11745921_a_at) / Fold change /veh ZSCAN30 (11745921_a_at) / RFU CMKLR1 (11741424_a_at) / Fold change /veh CMKLR1 (11741424_a_at) / RFU LOC101060620 /// MAPK8IP1 (11723275_at) / Fold change /veh LOC101060620 /// MAPK8IP1 (11723275_at) / RFU SPTSSB (11747773_x_at) / Fold change /veh SPTSSB (11747773_x_at) / RFU PRSS12 (11739890_at) / Fold change /veh PRSS12 (11739890_at) / RFU BIN1 (11741810_x_at) / Fold change /veh BIN1 (11741810_x_at) / RFU WNT11 (11732464_a_at) / Fold change /veh WNT11 (11732464_a_at) / RFU C10orf10 (11716521_a_at) / Fold change /veh C10orf10 (11716521_a_at) / RFU C5orf56 (11738089_at) / Fold change /veh C5orf56 (11738089_at) / RFU CYB561 (11721691_x_at) / Fold change /veh CYB561 (11721691_x_at) / RFU ANKRD19P (11752326_a_at) / Fold change /veh ANKRD19P (11752326_a_at) / RFU OR2T12 /// OR2T33 /// OR2T8 (11738714_s_at) / Fold change /veh OR2T12 /// OR2T33 /// OR2T8 (11738714_s_at) / RFU VCAN (11748164_a_at) / Fold change /veh VCAN (11748164_a_at) / RFU JSRP1 (11732532_at) / Fold change /veh JSRP1 (11732532_at) / RFU KRTAP10-11 (11738290_x_at) / Fold change /veh KRTAP10-11 (11738290_x_at) / RFU MYO3A (11730013_a_at) / Fold change /veh MYO3A (11730013_a_at) / RFU EBF3 (11725865_a_at) / Fold change /veh EBF3 (11725865_a_at) / RFU CAMK2N1 (11719241_x_at) / Fold change /veh CAMK2N1 (11719241_x_at) / RFU C5orf56 (11738088_a_at) / Fold change /veh C5orf56 (11738088_a_at) / RFU OLFML3 (11715873_a_at) / Fold change /veh OLFML3 (11715873_a_at) / RFU LOC100653217 /// NTM (11731650_a_at) / Fold change /veh LOC100653217 /// NTM (11731650_a_at) / RFU MAPK11 (11762145_a_at) / Fold change /veh MAPK11 (11762145_a_at) / RFU FIZ1 (11724087_x_at) / Fold change /veh FIZ1 (11724087_x_at) / RFU OASL (11726364_x_at) / Fold change /veh OASL (11726364_x_at) / RFU SOX15 (11748057_x_at) / Fold change /veh SOX15 (11748057_x_at) / RFU CD79A (11719716_a_at) / Fold change /veh CD79A (11719716_a_at) / RFU HIST1H1D (11736915_at) / Fold change /veh HIST1H1D (11736915_at) / RFU CASKIN2 (11723855_a_at) / Fold change /veh CASKIN2 (11723855_a_at) / RFU LOC730098 (11760151_x_at) / Fold change /veh LOC730098 (11760151_x_at) / RFU OR4N2 (11742367_at) / Fold change /veh OR4N2 (11742367_at) / RFU PRRT2 (11749266_a_at) / Fold change /veh PRRT2 (11749266_a_at) / RFU SNX32 (11753110_a_at) / Fold change /veh SNX32 (11753110_a_at) / RFU CDHR5 (11726645_a_at) / Fold change /veh CDHR5 (11726645_a_at) / RFU RCAN1 (11760418_a_at) / Fold change /veh RCAN1 (11760418_a_at) / RFU FAM167A (11723789_a_at) / Fold change /veh FAM167A (11723789_a_at) / RFU FAM26E (11764081_at) / Fold change /veh FAM26E (11764081_at) / RFU ISYNA1 (11749810_s_at) / Fold change /veh ISYNA1 (11749810_s_at) / RFU ACY1 (11761880_at) / Fold change /veh ACY1 (11761880_at) / RFU 11764098_at / Fold change /veh 11764098_at / RFU SAMD14 (11745864_x_at) / Fold change /veh SAMD14 (11745864_x_at) / RFU NPB (11741838_a_at) / Fold change /veh NPB (11741838_a_at) / RFU TMPRSS6 (11731388_a_at) / Fold change /veh TMPRSS6 (11731388_a_at) / RFU KRTAP10-2 (11738614_at) / Fold change /veh KRTAP10-2 (11738614_at) / RFU ARHGAP8 /// PRR5-ARHGAP8 (11727945_x_at) / Fold change /veh ARHGAP8 /// PRR5-ARHGAP8 (11727945_x_at) / RFU KRTAP5-7 /// NADSYN1 (11734609_at) / Fold change /veh KRTAP5-7 /// NADSYN1 (11734609_at) / RFU RASL12 (11751679_a_at) / Fold change /veh RASL12 (11751679_a_at) / RFU CDKN2B (11736163_a_at) / Fold change /veh CDKN2B (11736163_a_at) / RFU PRF1 (11729649_at) / Fold change /veh PRF1 (11729649_at) / RFU, ZNF638 /// ZNF638-IT1 / Fold change vs veh, ZNF638 /// ZNF638-IT1 / RFU, PANK3 / Fold change vs veh, PANK3 / RFU, SH3YL1 / Fold change vs veh, SH3YL1 / RFU, ZEB2 / Fold change vs veh, ZEB2 / RFU, NRIP1 / Fold change vs veh, NRIP1 / RFU, PTTG1IP / Fold change vs veh, PTTG1IP / RFU, CAPN2 / Fold change vs veh, CAPN2 / RFU, MED14 / Fold change vs veh, MED14 / RFU, SNORA58 / Fold change vs veh, SNORA58 / RFU, C1orf63 / Fold change vs veh, C1orf63 / RFU, LRRFIP1 / Fold change vs veh, LRRFIP1 / RFU, NDUFAF7 / Fold change vs veh, NDUFAF7 / RFU, SLC12A2 / Fold change vs veh, SLC12A2 / RFU, IBTK / Fold change vs veh, IBTK / RFU, ESF1 / Fold change vs veh, ESF1 / Fold change vs veh, TMEM50B / RFU, TAOK1 / Fold change vs veh, TAOK1 / RFU, ACBD3 / Fold change vs veh, ACBD3 / RFU, TMA16 / Fold change vs veh, TMA16 / RFU, RWDD3 / Fold change vs veh, RWDD3 / RFU, BCAT1 / Fold change vs veh, BCAT1 / RFU, EDEM3 / Fold change vs veh, EDEM3 / RFU, TMEM33 / Fold change vs veh, TMEM33 / RFU, WDR75 / Fold change vs veh, WDR75 / RFU, AHCTF1 / Fold change vs veh, AHCTF1 / RFU, TFRC / Fold change vs veh, TFRC / RFU, ZDHHC17 / Fold change vs veh, ZDHHC17 / RFU, NOM1 / Fold change vs veh, NOM1 / RFU, ARL8B / Fold change vs veh, ARL8B / RFU, ZBTB11 / Fold change vs veh, ZBTB11 / RFU, TAMM41 / Fold change vs veh, TAMM41 / RFU, KIAA1704 /// LOC100996395 / Fold change vs veh, KIAA1704 /// LOC100996395 / RFU, ING1 / Fold change vs veh, ING1 / RFU, TRMT61B / Fold change vs veh, TRMT61B / RFU, FUBP3 / Fold change vs veh, FUBP3 / RFU, TP53 / Fold change vs veh, TP53 / RFU, TNKS2 / Fold change vs veh, TNKS2 / RFU, ZFP14 / Fold change vs veh, ZFP14 / RFU, ACTR2 / Fold change vs veh, ACTR2 / RFU, PPP3R1 / Fold change vs veh, PPP3R1 / RFU, PIK3R1 / Fold change vs veh, PIK3R1 / RFU, HNRNPA1 / Fold change vs veh, HNRNPA1 / RFU, RNF170 / Fold change vs veh, RNF170 / RFU, ZNF28 / Fold change vs veh, ZNF28 / RFU, RNGTT / Fold change vs veh, RNGTT / RFU, OGT / Fold change vs veh, OGT / RFU, BRD1 / Fold change vs veh, BRD1 / RFU, MARS / Fold change vs veh, MARS / RFU, ZNF655 / Fold change vs veh, ZNF655 / RFU, FAHD1 / Fold change vs veh, FAHD1 / RFU, BDP1 / Fold change vs veh, BDP1 / RFU, LRRCC1 / Fold change vs veh, LRRCC1 / RFU, ARID1A / Fold change vs veh, ARID1A / RFU, ZNF146 / Fold change vs veh, ZNF146 / RFU, ZNF330 / Fold change vs veh, ZNF330 / RFU, GPN3 / Fold change vs veh, GPN3 / RFU, C9orf123 / Fold change vs veh, C9orf123 / RFU, N4BP2L2 / Fold change vs veh, N4BP2L2 / RFU, ARFIP1 / Fold change vs veh, ARFIP1 / RFU, FAM179B / Fold change vs veh, FAM179B / RFU, BCL10 / Fold change vs veh, BCL10 / RFU, UHRF1BP1L / Fold change vs veh, UHRF1BP1L / RFU, BET1 / Fold change vs veh, BET1 / RFU, CNOT2 / Fold change vs veh, CNOT2 / RFU, ZNF268 / Fold change vs veh, ZNF268 / Fold change vs veh, ZNF507 / RFU, DGCR2 / Fold change vs veh, DGCR2 / RFU, WDSUB1 / Fold change vs veh, WDSUB1 / Fold change vs veh, HSP90B1 /// MIR3652 / RFU, ADSS / Fold change vs veh, ADSS / RFU, GK / Fold change vs veh, GK / RFU, ZNF148 / Fold change vs veh, ZNF148 / RFU, TAF9 / Fold change vs veh, TAF9 / RFU, SLC1A5 / Fold change vs veh, SLC1A5 / RFU, SLMO2 / Fold change vs veh, SLMO2 / RFU, ABCC4 / Fold change vs veh, ABCC4 / RFU, LOC101060439 /// RAP1B / Fold change vs veh, LOC101060439 /// RAP1B / RFU, RFX7 / Fold change vs veh, RFX7 / RFU, GTPBP10 / Fold change vs veh, GTPBP10 / RFU, CNEP1R1 / Fold change vs veh, CNEP1R1 / RFU, BIVM-ERCC5 /// ERCC5 / Fold change vs veh, BIVM-ERCC5 /// ERCC5 / RFU, ILF3 / Fold change vs veh, ILF3 / RFU 11762660_at / Fold change /veh 11762660_at / RFU VCAN (11757783_s_at) / Fold change /veh VCAN (11757783_s_at) / RFU DDX43 (11728927_at) / Fold change /veh DDX43 (11728927_at) / RFU KRT8 (11758188_x_at) / Fold change /veh KRT8 (11758188_x_at) / RFU NKD1 (11759106_at) / Fold change /veh NKD1 (11759106_at) / RFU SRD5A1 (11742802_a_at) / Fold change /veh SRD5A1 (11742802_a_at) / RFU TPSAB1 /// TPSB2 (11721975_s_at) / Fold change /veh TPSAB1 /// TPSB2 (11721975_s_at) / RFU GSTM3 (11746129_a_at) / Fold change /veh GSTM3 (11746129_a_at) / RFU IL23R (11737362_x_at) / Fold change /veh IL23R (11737362_x_at) / RFU TMEM51 (11727254_a_at) / Fold change /veh TMEM51 (11727254_a_at) / RFU PIWIL2 (11732686_x_at) / Fold change /veh PIWIL2 (11732686_x_at) / RFU ORM1 (11744905_x_at) / Fold change /veh ORM1 (11744905_x_at) / RFU CCDC152 (11743942_at) / Fold change /veh CCDC152 (11743942_at) / RFU ECM1 (11717891_a_at) / Fold change /veh ECM1 (11717891_a_at) / RFU IL23R (11748794_a_at) / Fold change /veh IL23R (11748794_a_at) / RFU TNFAIP8L3 (11732012_x_at) / Fold change /veh TNFAIP8L3 (11732012_x_at) / RFU MBOAT4 (11741988_at) / Fold change /veh MBOAT4 (11741988_at) / RFU 11764193_at / Fold change /veh 11764193_at / RFU TMEM53 (11763286_at) / Fold change /veh TMEM53 (11763286_at) / RFU MAGEB2 (11727129_at) / Fold change /veh MAGEB2 (11727129_at) / RFU TMEM200A (11744735_a_at) / Fold change /veh TMEM200A (11744735_a_at) / RFU CCDC152 (11751479_a_at) / Fold change /veh CCDC152 (11751479_a_at) / RFU FAM211A (11726209_a_at) / Fold change /veh FAM211A (11726209_a_at) / RFU RGS16 (11746705_a_at) / Fold change /veh RGS16 (11746705_a_at) / RFU VCAN (11755009_s_at) / Fold change /veh VCAN (11755009_s_at) / RFU RHOB (11743442_s_at) / Fold change /veh RHOB (11743442_s_at) / RFU RGS16 (11720943_a_at) / Fold change /veh RGS16 (11720943_a_at) / RFU RGS16 (11720944_at) / Fold change /veh RGS16 (11720944_at) / RFU, VPS4B / Fold change vs veh, VPS4B / RFU, CREB1 / Fold change vs veh, CREB1 / RFU, DNAJC13 / Fold change vs veh, DNAJC13 / RFU, GNAQ / Fold change vs veh, GNAQ / RFU, CDK5R1 / Fold change vs veh, CDK5R1 / RFU, ZRANB3 / Fold change vs veh, ZRANB3 / RFU, CUL4A / Fold change vs veh, CUL4A / RFU, CCNY / Fold change vs veh, CCNY / RFU, UFL1 / Fold change vs veh, UFL1 / RFU, COG3 / Fold change vs veh, COG3 / RFU, DIAPH2 / Fold change vs veh, DIAPH2 / RFU, SKA2 / Fold change vs veh, SKA2 / RFU, AFF3 / Fold change vs veh, AFF3 / RFU, LMF1 / Fold change vs veh, LMF1 / RFU, IPO11 / Fold change vs veh, IPO11 / RFU, DFFB / Fold change vs veh, DFFB / RFU, FOXP1 / Fold change vs veh, FOXP1 / RFU, CARD8 / Fold change vs veh, CARD8 / RFU, STRN3 / Fold change vs veh, STRN3 / RFU, ADK / Fold change vs veh, ADK / RFU, RASSF2 / Fold change vs veh, RASSF2 / RFU, WIPF1 / Fold change vs veh, WIPF1 / RFU, LARP1B / Fold change vs veh, LARP1B / RFU, RASA1 / Fold change vs veh, RASA1 / RFU, RB1 / Fold change vs veh, RB1 / RFU, PPFIA1 / Fold change vs veh, PPFIA1 / RFU, MAT2A / Fold change vs veh, MAT2A / RFU, CCT5 / Fold change vs veh, CCT5 / RFU, WDR92 / Fold change vs veh, WDR92 / RFU, CUX1 / Fold change vs veh, CUX1 / RFU, TTC7A / Fold change vs veh, TTC7A / RFU, TMEM135 / Fold change vs veh, TMEM135 / RFU, DEPTOR / Fold change vs veh, DEPTOR / RFU, CPM / Fold change vs veh, CPM / RFU, DNAJB6 / Fold change vs veh, DNAJB6 / RFU, CACNA2D3 / Fold change vs veh, CACNA2D3 / RFU, DTX4 / Fold change vs veh, DTX4 / RFU, TFCP2 / Fold change vs veh, TFCP2 / RFU, GMCL1 /// GMCL1P1 / Fold change vs veh, GMCL1 /// GMCL1P1 / RFU, AEBP2 / Fold change vs veh, AEBP2 / RFU, SNHG1 /// SNORD22 /// SNORD25 /// SNORD26 /// SNORD27 /// SNORD28 /// SNORD29 /// SNORD31 / Fold change vs veh, SNHG1 /// SNORD22 /// SNORD25 /// SNORD26 /// SNORD27 /// SNORD28 /// SNORD29 /// SNORD31 / Fold change (Aza/veh), C12orf56 (ProbeSet 11735607_a_at) / Fold change (ACY-1035/veh), C12orf56 (ProbeSet 11735607_a_at) / Fold change (Aza/veh), FGFR1OP (ProbeSet 11751329_s_at) / Fold change (ACY-1035/veh), FGFR1OP (ProbeSet 11751329_s_at) / Fold change (Aza/veh), VPS36 (ProbeSet 11739960_a_at) / Fold change (ACY-1035/veh), VPS36 (ProbeSet 11739960_a_at) / RFU SYPL1 (11715823_x_at) / Fold change /veh SYPL1 (11715823_x_at) / RFU IGFBP7 (11715501_s_at) / Fold change /veh IGFBP7 (11715501_s_at) / RFU REEP3 (11722064_at) / Fold change /veh REEP3 (11722064_at) / RFU IGLL1 (11728026_x_at) / Fold change /veh IGLL1 (11728026_x_at): dose or concentration left out as unconfirmed
Conditions: MV-4-11 cells, 48 hours

Nc1ccc(-c2cccs2)cc1NC(=O)c1ccc2c(c1)cc(C1CC1)n2CCN1CCOCC1 [ACY-1035]
Fold change /veh CASKIN2 (11723855_a_at): 1.05
